Measurements from paper PMC6767919 (European journal of pharmacology, 2019).
Marks after values point to notes of the source that are not given here.

Experiments:
[1] = target: T1, human 5-HT2C–INI (wild-type, WT) receptor (Homo sapiens, UniProt P28335); format: cell-based
T1 sequence (P28335 33-458): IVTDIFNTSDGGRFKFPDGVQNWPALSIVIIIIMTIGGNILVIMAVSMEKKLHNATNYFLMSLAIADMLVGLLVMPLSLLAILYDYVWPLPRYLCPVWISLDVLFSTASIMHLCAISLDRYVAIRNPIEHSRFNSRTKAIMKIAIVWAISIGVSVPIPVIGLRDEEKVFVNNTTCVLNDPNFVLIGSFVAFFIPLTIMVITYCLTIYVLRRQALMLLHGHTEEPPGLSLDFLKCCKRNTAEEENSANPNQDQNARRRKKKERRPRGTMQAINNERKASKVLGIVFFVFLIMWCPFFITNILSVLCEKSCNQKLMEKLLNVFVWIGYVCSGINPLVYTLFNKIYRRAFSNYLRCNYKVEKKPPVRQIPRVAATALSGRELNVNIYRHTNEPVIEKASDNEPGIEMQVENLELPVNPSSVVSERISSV

[2] = target: T2, 5-HT2C receptor (Homo sapiens, UniProt P28335); experiment: Inverse agonist reduction of basal 5-HT2C-mediated IP production; format: cell-based; conditions: CHO-K1 cells; basal 5-HT2C-mediated IP production after 20 h of vehicle; n = 3
T2 sequence (P28335 33-458): T1 sequence (P28335 33-458)

[3] = target: T3, 5-HT2C-INI receptor (Homo sapiens, UniProt P28335); experiment: DiscoverX PathHunter β-arrestin recruitment to the 5-HT2C receptor; format: cell-based; conditions: for Emax (% 5-HT), β-arrestin recruitment / pEC50, β-arrestin recruitment: U2OS cells stably expressing 5-HT2C-INI, agonist 2 h, n = 3
T3 sequence (P28335 33-458): T1 sequence (P28335 33-458)

[4] = target: T2, 5-HT2C receptor; conditions: ref Schlag et al., 2004; cited from earlier work
[5] = target: T2, 5-HT2C receptor; experiment: Inverse agonist sensitization of 5-HT2C receptor IP signaling; format: cell-based; conditions: pretreatment for 8 h or less; data not shown
[6] = target: T4, 5-HT2C receptor (WT) (Homo sapiens, UniProt P28335); format: cell-based
T4 sequence (P28335 33-458): T1 sequence (P28335 33-458)

[7] = Solubility in the desensitization assay; format: physicochemical
[8] = target: T2, 5-HT2C receptor; experiment: Effect of PKC inhibition on 5-HT-induced 5-HT2C receptor desensitization; conditions: 10 μM chelerythrine; data not shown
[9] = target: PKC; conditions: read-out: Ki for PKC; ref Herbert et al., 1990; Absolinova et al., 2010; cited from earlier work

SMILES | Emax (% 5-HT), inositol phosphate production [1] | agonist efficacy class relative to 5-HT, IP production [1] | pEC50, inositol phosphate production [1] | Imax (% decrease from basal), inositol phosphate reduction [2] | Emax (% 5-HT), β-arrestin recruitment [3] | other results
COc1cc(CC(C)N)c(OC)cc1I (racemic) [DOI, (±) 2,5-dimethoxy-4-iodoamphetamine] | 82 ± 4 % 5-HT | full agonists | 8.32 ± 0.10 | – | – | –
CN(C)[C@@H]1Cc2ccccc2[C@@H](C2CCCCC2)C1 (relative stereo) [CAT, (2S,4R)-(−)-trans-4-cyclohexyl-N,N-dimethyl-1,2,3,4-tetrahydronaphthalen-2-amine] | – | – | – | 26 ± 4 % decrease from basal | – | pIC50, inositol phosphate reduction [2]: 7.17 ± 0.21
CN(C)[C@@H]1Cc2ccccc2[C@@H](c2cccc(Br)c2)C1 (relative stereo) [MBP, (2S,4R)-(−)-trans-4-(3’[meta]-bromophenyl)-N,N-dimethyl-1,2,3,4-tetrahydronaphthalen-2-amine] | 73 ± 4^a % 5-HT | partial agonists | 7.76 ± 0.04 | – | 7 ± 4^a % 5-HT | effect on 5-HT2C receptor β-arrestin recruitment (in words) [3]: negligible effects; pEC50, β-arrestin recruitment [3]: 6.84 ± 0.10^a
CN(C)[C@@H]1Cc2ccccc2[C@@H](c2cccc(C(F)(F)F)c2)C1 (relative stereo) [MFP, (2S,4R)-(−)-trans-4-(3’[meta]-trifluoromethylphenyl)-N,N-dimethyl-1,2,3,4-tetrahydronaphthalene-2-amine] | – | – | – | 25 ± 3 % decrease from basal | – | pIC50, inositol phosphate reduction [2]: 7.62 ± 0.10
CN(C)[C@@H]1Cc2ccccc2[C@@H](c2ccccc2)C1 (relative stereo) [PAT, (2S,4R)-(−)-trans-4-phenyl-N,N-dimethyl-1,2,3,4-tetrahydronaphthalen-2-amine] | 50 ± 1^a % 5-HT | – | – | – | – | –
C[C@H](N)Cn1ccc2cc(F)c(Cl)cc21 [Ro 60–0175] | 99 ± 6 % 5-HT | full agonists | 8.30 ± 0.05 | – | 92 ± 4 % 5-HT | pEC50, β-arrestin recruitment [3]: 7.86 ± 0.11
Cn1ccc2cc3c(cc21)CCN3C(=O)Nc1cccnc1 [SB 206553] | – | – | – | 32 ± 5 % decrease from basal | – | sensitization of 5-HT2C receptors after 30 min pretreatment [4]: insufficient to sensitize; sensitization of the 5-HT2C receptor after short pretreatment [5]: does not sensitize
O=C1Nc2cc(Cl)c(Cl)cc2N2CCNCC12 (stereo not drawn) [WAY-161503] | 100 ± 2 % 5-HT | full agonists | 8.07 ± 0.08 | – | – | –
O=C1CCc2ccc(OCCCCN3CCN(c4cccc(Cl)c4Cl)CC3)cc2N1 [aripiprazole] | 40 ± 4^a % 5-HT | – | – | – | 8 ± 1^a % 5-HT | effect on 5-HT2C receptor β-arrestin recruitment (in words) [3]: negligible effects; desensitization of 5-HT2C-PLC signaling (in words) [6]: did not desensitize; solubility in the desensitization assay [7]: low solubility
COc1ccc2c(c[n+](C)c3c4cc5c(cc4ccc23)OCO5)c1OC [chelerythrine] | – | – | – | – | – | effect of chelerythrine on 5-HT-induced IP production in non-desensitized cells [8]: no effect; Ki [9]: 700 nM
C[C@H]1CNCCc2ccc(Cl)cc21 [lorcaserin] | 100 ± 1 % 5-HT | – | – | – | 118 ± 5^a % 5-HT | –
Clc1cccc(N2CCNCC2)c1 [mCPP, 1-(3-chlorophenyl)piperazine] | 88 ± 10 % 5-HT | – | – | – | – | –
CN1C[C@@H](NS(=O)(=O)N(C)C)C[C@@H]2c3cccc4c3c(cn4C)C[C@H]21 [mesulergine] | – | – | – | 17 ± 2 % decrease from basal | – | –
